In series [1] the test system is LPS-stimulated peritoneal macrophages of C57bl/6j mice. The series can be described thus: IL-6 secretion by LPS-stimulated peritoneal macrophages (ELISA). The series is classed as cell-based. Conditions: Mus musculus, Peritoneal macrophage, 95% C.I. 1.43-9.87 μM. The protocol: Peritoneal macrophages (PM) were isolated from the peritoneal exudate of 30 male C57bl/6j mice. To accumulate PM, 1 mL of 3% peptone solution was injected intraperitoneally. After 3 days, the mice were euthanized by cervical dislocation. Cells of peritoneal exudate were obtained by aseptic washing of the abdominal cavity with 5 mL of sterile Hanks’s solution (+4–6 °C) without calcium and magnesium ions. The total number and viability of cells were assessed in a Goryaev counting chamber (Russia) with a 0.4% trypan blue staining (Sigma-Aldrich, St. Louis, MO, USA). The cell concentration was adjusted to 1.0 × 10^6 cells/mL in DMEM (Gibco) supplemented with 2 mM L-glutamine (Gibco, Waltham, MA, USA), 10% heat-inactivated fetal bovine serum (BioClot, Bavaria, Germany), 100 U/mL penicillin, and […] streptomycin (Gibco) and plated 200 μL/well in 96-well transparent plates (SPL Life Sciences Co., Ltd., Pocheon-si, Korea). After 2 h at 37 °C in a humidified atmosphere with 5% CO2, the wells were washed to remove non-adherent cells. […]
The cell supernatant was collected and centrifuged at 1000 g for 20 min in a 2–16PK centrifuge (Sigma, Osterode am Harz, Germany). The concentrations of IL-6 and TNF-α were determined by ELISA using commercial kits (Cloud-clone, Houston, TX, USA) with a microplate reader Infinite M200 PRO (Tecan, Grödig, Austria).
Background: An ELISA detects its analyte on a solid surface through an enzyme-linked reagent.

Series [2] relates to peritoneal macrophages of C57bl/6j mice. The series can be described thus: Cytotoxicity, lactate dehydrogenase (LDH) activity in cell supernatants. The series is classed as cell-based, mouse. As to the method: (§1) Peritoneal macrophages (PM) were isolated from the peritoneal exudate of 30 male C57bl/6j mice. To accumulate PM, 1 mL of 3% peptone solution was injected intraperitoneally. After 3 days, the mice were euthanized by cervical dislocation. Cells of peritoneal exudate were obtained by aseptic washing of the abdominal cavity with 5 mL of sterile Hanks’s solution (+4–6 °C) without calcium and magnesium ions. The total number and viability of cells were assessed in a Goryaev counting chamber (Russia) with a 0.4% trypan blue staining (Sigma-Aldrich, St. Louis, MO, USA). The cell concentration was adjusted to 1.0 × 10^6 cells/mL in DMEM (Gibco) supplemented with 2 mM L-glutamine (Gibco, Waltham, MA, USA), 10% heat-inactivated fetal bovine serum (BioClot, Bavaria, Germany), 100 U/mL penicillin, and […] streptomycin (Gibco) and plated 200 μL/well in 96-well transparent plates (SPL Life Sciences Co., Ltd., Pocheon-si, Korea). After 2 h at 37 °C in a humidified atmosphere with 5% CO2, the wells were washed to remove non-adherent cells. After 24 h of incubation, 20 μL of the supernatants were substituted with 20 μL of solutions of test compounds, followed by E. coli O127:B8 LPS (100 ng/mL final concentration) after 30 min. The experiments were run in 3 independent replicates.
(§2) The activity of lactate dehydrogenase (LDH) in a cell culture medium served as a marker of membrane permeability and cell death. […] Then, 25 μL of a 6.48 mM pyruvate solution was added to the mixture. The optical density was followed at a wavelength of 340 nm for 20 min. The MTT-test was performed 24 h after incubations of cells with tested compounds. Briefly, 20 μL of MTT solution was added to each well, incubated at 37 °C in a humidified atmosphere containing 5% CO2 for 4 h. The culture medium was removed, the cells were lysed, and formazan crystals were dissolved in 150 μL DMSO. The plates were shaken at room temperature for 10 min, and the optical density was measured in a microplate reader Infinite M200 PRO (Tecan, Grödig, Austria) at a wavelength of 565 nm.

Assay in series [3]: as above
The series is classed as cell-based, mouse. Conditions: male, C57bl/6j, mouse, LPS-stimulated peritoneal macrophages. The protocol: as §1, §2

The subject of series [4] is LPS-stimulated peritoneal macrophages of C57bl/6j mice. The series can be described thus: Inhibition of LPS-induced NO synthesis (nitrite accumulation, Griess reagent) in peritoneal macrophages. Conditions: Mus musculus, Peritoneal macrophage. The series is classed as cell-based, mouse. As to the method: as §1
The accumulation of the nitrite anion (a stable end product of NO decomposition produced by iNOS) in supernatants was determined using a standard Griess reagent. Briefly, 50 μL of supernatants were collected 22 h after incubation of PM, and the test and control compounds were mixed with 50 μL of 1% […] in 2.5% H3PO4 and 50 μL of 0.1% N-(1-naphthyl) ethylenediamine in 2.5% H3PO4. After incubation at 23 °C for 10 min in an orbital shaker, the optical density was determined at a wavelength of 550 nm with a microplate reader Infinite M200 PRO (Tecan, Grödig, Austria).

Series [5] concerns peritoneal macrophages of C57bl/6j mice. Description: Yeast phagocytosis assay and macrophage spreading. The series is classed as cell-based, mouse. As to the method:
Next, we evaluated lead compound 9g for immunodepressant activity in parallel with the reference drug dexamethasone. Yeast phagocytosis was assessed by microscopic examination as the number of phagocytes per 100 macrophages and as the number of phagocytosed yeast cells in each phagocyte. Cell viability was assessed as lactate dehydrogenase activity in cell supernatants, which correlates with increased cell membrane permeability.
Peritoneal macrophages of C57bl/6j mice were cultured in a 24-well plate at a volume of 500 μL/well (1 × 10^5 cells/mL) for 24 h. Test compounds or DMSO were added to wells in triplicate followed by 50 μL of 1% yeast suspension, and the plates were incubated for 40 min. After 24 or 72 h, the medium was removed. The cells were fixed with May–Grunwald methanol dye and stained with Azur-Eosin in Romanovsky’s modification for 45 min at room temperature, washed, air-dried, and analyzed using a microscope Mikmed-6 (Russia), equipped with a digital camera. The study was performed in three technical replicates and two series; 100 macrophages were processed in each sample to count the captured yeast cells. Macrophage spreading was assessed as a number of pseudopodia.

The values that follow come from paper PMC9146423, “Discovery of Nitro-azolo[1,5-a]pyrimidines with Anti-Inflammatory and Protective Activity against LPS-Induced Acute Lung Injury” (Pharmaceuticals, 2022).

For `Cc1nc2nnnn2c(NCCc2ccc(O)cc2)c1[N+](=O)[O-]` [Compound 9g, N-[2-(4-Hydroxyphenyl)ethyl]-5-methyl-6-nitrotetrazolo-[1,5-a]pyrimidin-7-amine], the IC50 in series [1] and in series [4] (LPS-stimulated peritoneal macrophages) was 3.72 µM throughout. Besides, the “Cytotoxic properties during the phagocytosis experiment (LDH)” value in series [2] (up to 72 h of incubation) was “No cytotoxic properties were noted”. Also, the “Effect on viability of the macrophages” value in series [2] (up to a concentration of 50 μM) is “did not affect the viability”. In series [3], this compound showed a CC50 at 24 h of more than 100 µM. For the same compound, the inhibition at 100 µM in series [4] (22 h, 100 μM, m ± SD, read-out: Inhibition of NO Synthesis vs. LPS Control) was 58.5 ± 5.93%. The Suppression of phagocytosis entry in series [5] (after 24-h of incubation, data not shown) is on record as “not”. Moreover, in series [5] (after 72 h of incubation), the “Decrease of the mean number of phagocytosed yeast cells” value is given as 16%. Further, the “Macrophage phagocytic activity (in words)” value in series [5] (after 72 h of incubation) is given as “preserved macrophage phagocytic activity”. Moreover, the Macrophage spreading result in series [5] (yeast-stimulated, visually scored) is on record as “reduced it to a nearly unstimulated level”.

The term IC50 denotes the concentration at which inhibition is half-maximal. The low end stands for inhibition by little substance, the high end for a need for much substance. As usually defined, the CC50 is the concentration giving 50% cytotoxicity. A low value points to greater toxicity to the cells. A word on the inhibition: it is the share of the control response that was lost under treatment.
